Experimental data from publication PMC3948684, “Approaches to Improve the Oral Bioavailability and Effects of Novel Anticancer Drugs Berberine and Betulinic Acid” (PLoS ONE, 2014).

How the values were obtained:
[1] = set-up: method as in PMID 19283771; conditions: oral administration of 100 mg/kg in rats ref 24; cited from earlier work
cleaved caspase 3 = test: IHC analysis of orthotopic lung tumor sections; format: in vivo, athymic Nu/nu mice; conditions: A549 tumors
From the text: Formalin fixed tumors were processed for automatic histopathological procedures. The detailed procedure was provided in Data S1 [30].
C) IHC for cleaved caspase 3 and CD31: Formalin fixed tumors were processed for automatic histopathological procedures. The detailed procedure was provided in supplmmentary data (Supple). Tissue sections were dehydrated by immersing in increasing concentrations of alcohol and embedded in paraffin. Paraffin embedded specimens were cut into thin sections (4-5 µm). Tissue sections (4–5 μm thick) were mounted on poly-L-lysine–coated slides and sections were deparaffinized with xylene and rehydration through graded concentrations of alcohol, then incubated with 3% […] for 20 min to block endogenous peroxidase activity. Antigen retrieval for cleaved caspase 3 and CD31 staining was carried out for 10 min in 0.01 M sodium citrate buffer (pH 6), heated at 95°C in a steam bath followed by cooling for 30 min. Endogenous peroxidase was blocked by 3% hydrogen peroxide in PBS for 10 min. The slides were washed with PBS and incubated for 1h at room temperature with a protein blocking solution. […] Numbers of positive cells per filed was quantified by counting 10 different fields from each section. Based on the CD31 positive cells, microvessel density (MVD) was calculated (30).

p53 = test: Western blot of orthotopic lung tumor lysates; format: in vivo, athymic Nu/nu mice; conditions: A549 tumors; densitometry
Method: Western blot analysis was performed to study the expression of Bcl-2, cleaved caspase 3, survivin, cyclin D1, p53, MMP-9, HIF-1α. The detailed procedure was given as Data S1.
B) Western blot analysis: western blot analysis was performed to study the expression of Bcl-2, cleaved caspase 3, survivin, cyclin D1, p53, MMP-9, HIF-1α. The detailed procedure was given in supplementary data. Protein was extracted from tumor tissues collected from untreated control and drug treated animals using RIPA lysis buffer (50mM Tris-HCL, pH 8.0, with 150 mM sodium chloride, 1.0% Igepal CA-630 (NP-40), 0.5% sodium deoxychlorate, and 0.1% sodium dodecyl sulfate) with protease inhibitor and 500 mM phenylmethylsulfonyl fluoride. Protein concentration was measured using BCA Protein Assay Reagent Kit (PIERCE, Rockford, IL). Equal amounts of supernatant protein (50 μg) was denatured by boiling for 5 min in SDS sample buffer, separated by 10% SDS-PAGE, transferred to nitrocellulose membranes for immunoblotting. Membranes were blocked with 5% skim milk in Tris-buffered saline with Tween 20 [10mM Tris-HCL (pH 7.6), 150 mM Nacl, and 0.5% Tween 20] and probed with antibodies against Bcl-2 (1:1000), cleaved caspase 3 (1:500), survivin (1:1000), cyclin D1(1:1000), p53 (1:1000), MMP-9 (1:1000), HIF-1α (1:1000) and β-actin (1:1000). Horseradish peroxidase-conjugated secondary antibodies (Santa Cruz Biotechnology, Santa Cruz, CA) were used. Proteins were visualized using enhanced chemiluminescent solution (Pierce, Rockford, IL) and exposed to Kodak X-OMAT AR autoradiography film (Eastman Kodak, Rochester, NY).

[2] = tested on: TUNEL positive apoptotic cells; test: TUNEL assay on orthotopic lung tumor sections; format: in vivo, athymic Nu/nu mice
Method: Terminal deoxynucleotidyl transferase-mediated dUTP nick end labeling (TUNEL) assay was used to study the DNA fragmentation or apoptosis detection. TUNEL assay was performed on 4–5 µm thick sections as per the kit manual. Formalin-fixed tumor tissues were embedded in paraffin and sectioned ([…]). DeadEndTM Colorimetric Apoptosis Detection System (Promega, Madison, WI) allows the recognition of apoptotic nuclei in paraffin-embedded tissue sections fixed on slides according to the manufacturer's protocol. Briefly, the equilibration buffer was added to slides and incubated for 10 minutes followed by 10-minute incubation in […] proteinase K solution. The sections were washed in PBS and incubated with TdT enzyme at 37°C for 1 h in a humidified chamber for incorporation of biotinylated nucleotides at the 3-OH ends of DNA. The slides were incubated in horseradish peroxidase-labeled streptavidin to bind the biotinylated nucleotides followed by detection with stable chromagen DAB. The images on the slides were visualized with an Olympus BX40 light microscope equipped with a computer-controlled digital camera (DP71, Olympus Center Valley, PA, USA). Three slides per group were stained and apoptotic cells were identified by dark brown […] staining.

H1650 cells = test: In vitro cytotoxicity, crystal violet staining; format: cell-based; conditions: Homo sapiens, NCI-H1650; BBR, 72 h exposure
Method: (§1) NSCLC cells A549 and H1650 were plated in 96 well plates at 10,000 cells/well density. After 24 h, cells were treated with various concentrations of BBR and BA. DMSO (0.1%) treated cells were considered as control cells. After 72 h treatment, cells were fixed in 0.25% gultaraldehyde and stained with 0.05% crystal violet staining. Percent of cell viability or cell kill was calculated by considering DMSO treated control cells as 100% viable (zero % cell kill).

A549 cells = test: In vitro cytotoxicity, crystal violet staining; format: cell-based; conditions: Homo sapiens, BBR, 72 h exposure
Method: as §1

H1650 colonies = test: Clonogenic assay (colony formation); format: cell-based, Human; conditions: BBR at 1, 3 and 10 µM
From the text: Supplementary file pone.0089919.s002.tif: Figure S2 Effect of BBR on colony formation. A) Effects of BBR free drug and BBR-SD on spheroid number B) on spheroid sizes. Representative clonogenic images of H1650 colonies form C) control and D) BBR free drug and BBR-SD treated groups. Colonies were stained with crystal violet staining for better visibility. Each data point is represented as mean±sem (n = 6–10). **p<0.01 and ***p<0.001 Vs respective untreated control groups. (TIF) Click here for additional data file.

COc1ccc2cc3[n+](cc2c1OC)CCc1cc2c(cc1-3)OCO2.[Cl-] [BBR free drug, 5,6-dihydro-9,10-dimethoxy-benzo[g]-1,3-benzodioxolo[5,6-a]quinolizinium, chloride]
Cmax [1]: 4 ng/mL
number of cleaved caspase 3 positive apoptotic cells, higher compared to control (cleaved caspase 3): 4.20 fold
relative expression of p53 increased compared to untreated control (p53): 2.51 fold
increase in TUNEL positive apoptotic cells compared to control tumors [2]: 2.74 fold
IC50 (H1650 cells): 8.39 ± 1.03 µM
IC50 (A549 cells): 6.45 ± 0.46 µM
number of colonies and colony sizes (H1650 colonies): significantly decreased
